Experimental data taken from patent publication US9481700B2, “Method for preparing isofagomine and its derivatives” (Amicus Therapeutics, Inc., priority 2007, dated 2016).
Where a name gives a salt, the structure may show the parent alone.

Legend:
human GCase = target: T1, human GCase (Homo sapiens, UniProt P04062); assay: Phase 1 clinical trials, GCase activity in healthy volunteers; assay type: in vivo
T1 construct: human GCase in healthy volunteers; endogenous in cells
T1 sequence (P04062 40-536): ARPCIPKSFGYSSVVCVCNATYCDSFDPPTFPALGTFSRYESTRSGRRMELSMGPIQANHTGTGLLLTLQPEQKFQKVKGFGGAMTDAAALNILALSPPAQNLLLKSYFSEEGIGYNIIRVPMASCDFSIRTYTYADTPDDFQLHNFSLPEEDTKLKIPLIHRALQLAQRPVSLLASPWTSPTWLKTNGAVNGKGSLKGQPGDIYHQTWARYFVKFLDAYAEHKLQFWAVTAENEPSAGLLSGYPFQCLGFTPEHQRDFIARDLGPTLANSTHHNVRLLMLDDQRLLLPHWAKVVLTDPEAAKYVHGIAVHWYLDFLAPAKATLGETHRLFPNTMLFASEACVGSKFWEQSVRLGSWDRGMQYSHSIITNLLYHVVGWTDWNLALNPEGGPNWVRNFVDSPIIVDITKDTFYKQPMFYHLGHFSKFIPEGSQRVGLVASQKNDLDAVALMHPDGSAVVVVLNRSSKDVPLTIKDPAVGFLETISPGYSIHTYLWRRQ
Excerpt: (§1) In the absence of the “pharmacological chaperone,” the mutated enzyme protein misfolds in the ER (Ishii et al., Biochem. Biophys. Res. Comm. 1996; 220: 812-815), is retarded in its maturation to a final product, and is subsequently degraded by the ER-associated degradation mechanism. Homozygous mutant GCase is associated with the lysosomal storage disease Gaucher disease.

GCase [1] = assay: Phase 2 clinical trials, GCase activity in Gaucher patients expressing certain missense mutations; assay type: in vivo, human; conditions: Gaucher patients expressing certain missense mutations that create misfolded GCase
Excerpt: as §1

mutant GCase = conditions: in vitro, fibroblasts from Gaucher patients; cited from earlier work
GCase [2] = assay: Mouse model of Gaucher disease expressing mutations in the Gba gene; conditions: in vivo, unpublished data
Excerpt: as §1

| Compound | increase of the activity of human GCase (human GCase) | GCase activity (GCase [1]) | activity of mutant GCase (mutant GCase) | GCase activity (GCase [2]) | phenotype (GCase [2]) |
| --- | --- | --- | --- | --- | --- |
| OC[C@H]1CNC[C@@H](O)[C@@H]1O [IFG tartrate] | up to 3.5 fold | increase in GCase activity | – | – | – |
| OC[C@H]1CNC[C@@H](O)[C@@H]1O [IFG, (3R,4R,5R)-3,4-dihydroxy-5-hydroxymethyl-piperidine] | – | – | increase the activity of mutant GCase | increases GCase activity | improves the phenotype |
